Tested on: 958667-338-R-J2-PDC tumor spheroids viability
Test: Anticancer human tumor 958667-338-R-J2-PDC patient-derived colon adenocarcinoma cell line growth inhibition [PI3K]
Conditions: spheroids with HUVEC and MSC; for IC50: curve of first compound; for viability, T/C: stronger effect = lower value
Method in brief: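 Agents were dosed from a top concentration near clinical Cmax (otherwise 10 microM) in half-log decrements, alone or combined with PI3K inhibitors. The spheroids contain tumor cells plus endothelial (HUVEC) and MSC stroma; viability is measured.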

[1] = second compound 0.0316 µM, first compound 0.0316 µM
[2] = second compound 0.0316 µM, first compound 0.1 µM
[3] = second compound 0.0316 µM, first compound 0.316 µM
[4] = second compound 0.0316 µM, first compound 1 µM
[5] = second compound 0.0316 µM, first compound 3.16 µM
[6] = second compound 0.0316 µM, first compound 10 µM
[7] = second compound 0.1 µM, first compound 0.0316 µM
[8] = second compound 0.1 µM, first compound 0.1 µM
[9] = second compound 0.1 µM, first compound 0.316 µM
[10] = second compound 0.1 µM, first compound 1 µM
[11] = second compound 0.1 µM, first compound 3.16 µM
[12] = second compound 0.1 µM, first compound 10 µM
[13] = second compound 0.316 µM, first compound 0.0316 µM
[14] = second compound 0.316 µM, first compound 0.1 µM
[15] = second compound 0.316 µM, first compound 0.316 µM
[16] = second compound 0.316 µM, first compound 1 µM
[17] = second compound 0.316 µM, first compound 3.16 µM
[18] = second compound 0.316 µM, first compound 10 µM
[19] = second compound 1 µM, first compound 0.0316 µM
[20] = second compound 1 µM, first compound 0.1 µM
[21] = second compound 1 µM, first compound 0.316 µM
[22] = second compound 1 µM, first compound 1 µM
[23] = second compound 1 µM, first compound 3.16 µM
[24] = second compound 1 µM, first compound 10 µM
[25] = second compound 3.16 µM, first compound 0.0316 µM
[26] = second compound 3.16 µM, first compound 0.1 µM
[27] = second compound 3.16 µM, first compound 0.316 µM
[28] = second compound 3.16 µM, first compound 1 µM
[29] = second compound 3.16 µM, first compound 3.16 µM
[30] = second compound 3.16 µM, first compound 10 µM
[31] = second compound 10 µM, first compound 0.0316 µM
[32] = second compound 10 µM, first compound 0.1 µM
[33] = second compound 10 µM, first compound 0.316 µM
[34] = second compound 10 µM, first compound 1 µM
[35] = second compound 10 µM, first compound 3.16 µM
[36] = second compound 10 µM, first compound 10 µM
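Note: spheroids exposed to compounds for seven days before readout.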

Compound `C#Cc1c(F)ccc2cc(O)cc(-c3ncc4c(N5CC6CCC(C5)N6)nc(OCC56CCCN5CC(F)C6)nc4c3F)c12` (stereo unspecified) + CC(Nc1ncnc2nc[nH]c12)c1cc2cccc(Cl)c2c(=O)n1-c1ccccc1 has an IC50 (second compound 0.0316 µM) greater than 10 µM, an IC50 (second compound 0.1 µM) greater than 10 µM and an IC50 (second compound 0.316 µM) greater than 10 µM. The IC50 (second compound 1 µM) was greater than 10 µM, the IC50 (second compound 3.16 µM) was 7.83 µM and the IC50 (second compound 10 µM) was 8.56 µM. It also gave a viability, T/C [1] of 104%, a viability, T/C [2] of 99.2% and a viability, T/C [3] of 109%. It also gave a viability, T/C [4] of 84.9%, a viability, T/C [5] of 97.5% and a viability, T/C [6] of 69.7%. For the same compound, the viability, T/C [7] was 102%, the viability, T/C [8] was 109% and the viability, T/C [9] was 86.8%. The viability, T/C [10] was 104%, the viability, T/C [11] was 85.2% and the viability, T/C [12] was 77.5%. For the same compound, the viability, T/C [13] was 84%, the viability, T/C [14] was 99.3% and the viability, T/C [15] was 93.5%. It also gave a viability, T/C [16] of 92.8%, a viability, T/C [17] of 93.9% and a viability, T/C [18] of 63.5%. For the same compound, the viability, T/C [19] was 77.4%, the viability, T/C [20] was 101% and the viability, T/C [21] was 90.9%. The viability, T/C [22] was 84.8%, the viability, T/C [23] was 106% and the viability, T/C [24] was 65.1%. It also gave a viability, T/C [25] of 91.4%, a viability, T/C [26] of 94.2% and a viability, T/C [27] of 85.3%. The viability, T/C [28] was 76.5%, the viability, T/C [29] was 73.2% and the viability, T/C [30] was 43.6%. The viability, T/C [31] was 86.3%, the viability, T/C [32] was 83.2% and the viability, T/C [33] was 73.1%. It also gave a viability, T/C [34] of 86.9%, a viability, T/C [35] of 71.5% and a viability, T/C [36] of 46.4%.

For `C=CC(=O)N1CCN(c2nc(=O)n(-c3c(C)ccnc3C(C)C)c3nc(-c4c(O)cccc4F)c(F)cc23)C(C)C1` (stereo unspecified) + CC(Nc1ncnc2nc[nH]c12)c1cc2cccc(Cl)c2c(=O)n1-c1ccccc1, the IC50 (second compound 0.0316 µM) was greater than 10 µM, the IC50 (second compound 0.1 µM) was greater than 10 µM and the IC50 (second compound 0.316 µM) was greater than 10 µM. The IC50 (second compound 1 µM) was greater than 10 µM, the IC50 (second compound 3.16 µM) was greater than 10 µM and the IC50 (second compound 10 µM) was greater than 10 µM. For the same compound, the viability, T/C [1] was 118%, the viability, T/C [2] was 117% and the viability, T/C [3] was 104%. For the same compound, the viability, T/C [4] was 109%, the viability, T/C [5] was 130% and the viability, T/C [6] was 127%. It also gave a viability, T/C [7] of 106%, a viability, T/C [8] of 118% and a viability, T/C [9] of 112%. For the same compound, the viability, T/C [10] was 104%, the viability, T/C [11] was 118% and the viability, T/C [12] was 98%. It also gave a viability, T/C [13] of 116%, a viability, T/C [14] of 90.8% and a viability, T/C [15] of 93.6%. The viability, T/C [16] was 149%, the viability, T/C [17] was 116% and the viability, T/C [18] was 96.8%. The viability, T/C [19] was 108%, the viability, T/C [20] was 106% and the viability, T/C [21] was 85.9%. The viability, T/C [22] was 96.5%, the viability, T/C [23] was 123% and the viability, T/C [24] was 120%. For the same compound, the viability, T/C [25] was 89.8%, the viability, T/C [26] was 88.1% and the viability, T/C [27] was 99.9%. The viability, T/C [28] was 125%, the viability, T/C [29] was 112% and the viability, T/C [30] was 111%. The viability, T/C [31] was 93.3%, the viability, T/C [32] was 90.3% and the viability, T/C [33] was 115%. The viability, T/C [34] was 104%, the viability, T/C [35] was 101% and the viability, T/C [36] was 105%.

In the case of `CC(Cn1ccc(-c2ccc(C#N)c(Cl)c2)n1)NC(=O)c1cc(C(C)O)[nH]n1` (stereo unspecified) + CC(Nc1ncnc2nc[nH]c12)c1cc2cccc(Cl)c2c(=O)n1-c1ccccc1, the IC50 (second compound 0.0316 µM) is reported as greater than 10 µM, the IC50 (second compound 0.1 µM) is reported as greater than 10 µM and the IC50 (second compound 0.316 µM) is reported as greater than 10 µM. It also gave an IC50 (second compound 1 µM) greater than 10 µM, an IC50 (second compound 3.16 µM) greater than 10 µM and an IC50 (second compound 10 µM) greater than 10 µM. It also gave a viability, T/C [1] of 85.4%, a viability, T/C [2] of 105% and a viability, T/C [3] of 85.5%. The viability, T/C [4] was 106%, the viability, T/C [5] was 114% and the viability, T/C [6] was 86.5%. For the same compound, the viability, T/C [7] was 100%, the viability, T/C [8] was 97.5% and the viability, T/C [9] was 99.9%. The viability, T/C [10] was 99.2%, the viability, T/C [11] was 99.4% and the viability, T/C [12] was 79.1%. The viability, T/C [13] was 90.7%, the viability, T/C [14] was 109% and the viability, T/C [15] was 121%. The viability, T/C [16] was 108%, the viability, T/C [17] was 85.8% and the viability, T/C [18] was 109%. For the same compound, the viability, T/C [19] was 119%, the viability, T/C [20] was 115% and the viability, T/C [21] was 99.8%. It also gave a viability, T/C [22] of 112%, a viability, T/C [23] of 101% and a viability, T/C [24] of 73.7%. It also gave a viability, T/C [25] of 107%, a viability, T/C [26] of 105% and a viability, T/C [27] of 121%. The viability, T/C [28] was 82.8%, the viability, T/C [29] was 101% and the viability, T/C [30] was 98.5%. It also gave a viability, T/C [31] of 77.2%, a viability, T/C [32] of 98.7% and a viability, T/C [33] of 86.7%. It also gave a viability, T/C [34] of 84.1%, a viability, T/C [35] of 91.9% and a viability, T/C [36] of 97.7%.

Reference: PubChem BioAssay AID1963963 (Molecular Pharmacology Branch, DTP, NCI, 2024)
